In patent US9005314B2, “Biphenyl benzyl ether marker compounds for liquid hydrocarbons and other fuels and oils” (Dow Global Technologies LLC, priority 2010, dated 2015):
Blank lines part the entries; values can stand above or below the compound they belong to.

Columns and labels:
[1] = Metal adsorptivity: marked xylene treated with metal shavings, GC analysis; assay type: physicochemical; conditions: 100 mL marked xylene, 5 grams metal shavings, room temperature, 8 hours
Protocol: (§1) The stability and extractability of a representative marker was performed using xylene solutions containing between 100-1000 ppm maker and an equivalent amount of squalene internal reference standard using the following protocols:
(§2) Laundering Agents: • 1) 5% sulfuric acid • 2) 98% sulfuric acid • 3) 5% NaOH solution • 4) 50% NaOH solution To test for metal adsorptivity, 100 mL marked xylene tests solution is treated with 5 grams metal shavings at room temperature for 8 hours. GC analysis is again used to determine any loss of marker to the metal surface.

[2] = Laundering stability/extractability of marker in xylene solution, GC analysis versus un-laundered reference; assay type: physicochemical; conditions: 8 hours; for Marker: 95:5 marked xylenes:agent, relative to control = 100; for Change %: versus control
Protocol: as §1
Mix 95 parts marked xylenes with 5 parts laundering agent in a 100 mL vial. Mix gently for 8 hours using a magnetic stir bar. Stop mixing and remove a xylene solution aliquot. Analyze by GC and compare marker response to reference (un-laundered) sample.
as §2

Change % [1]: +4%
Marker [1]: 104%
Marker ([2]; 5% H2SO4 laundering agent): 85.51
Change % ([2]; 5% H2SO4 laundering agent): −14.49%
Marker ([2]; 5% NaOH laundering agent): 100.01
Change % ([2]; 5% NaOH laundering agent): 0.01%
Marker ([2]; 50% NaOH laundering agent): 101.85
Change % ([2]; 50% NaOH laundering agent): 1.85%
Marker ([2]; 98% H2SO4 laundering agent): 0.00
Change % ([2]; 98% H2SO4 laundering agent): −100.00%
melting point: 176 °C
Structure (SMILES): c1ccc(OCc2ccc(-c3ccc(COc4ccccc4)cc3)cc2)cc1 [4,4′-bis(phenoxymethyl)-1,1′-biphenyl]

melting point: 206 °C
Structure (SMILES): Cc1ccc(OCc2ccc(-c3ccc(COc4ccc(C)cc4)cc3)cc2)cc1 [4,4′-bis(4-methylphenoxymethyl)-1,1′-biphenyl]

melting point: 209 °C
Structure (SMILES): Cc1ccccc1OCc1ccc(-c2ccc(COc3ccccc3C)cc2)cc1 [4,4′-bis(2-methylphenoxymethyl)-1,1′-biphenyl]

melting point: 218 °C
Structure (SMILES): CC(C)(C)c1ccc(OCc2ccc(-c3ccc(COc4ccc(C(C)(C)C)cc4)cc3)cc2)cc1 [Example 4, 4,4′-bis(4-t-butylphenoxymethyl)-1,1′-biphenyl]
